Measurements from patent publication EP3911180B1, “PAENIBACILLUS WYNNII BETA-GALACTOSIDASE FOR THE PRODUCTION OF LACTOSE-DEPLETED AND GOS-ENRICHTED DAIRY PRODUCTS” (Universität Hohenheim, priority 2019, dated 2020).
“Also recorded” adds a separate entry of the source. Like-named read-outs stand apart in the source and are kept apart here.

How the values were obtained:
[1] = target: commercial beta-galactosidase Opti-Lactase (K. lactis) (Kluyveromyces lactis, UniProt P00723); experiment: Influence of galactose on the enzyme activity, lactose assay; assay type: biochemical; settings: 200 mM galactose, 8 °C, substrate Lactose
Chain of commercial beta-galactosidase Opti-Lactase (K. lactis) (P00723 whole entry): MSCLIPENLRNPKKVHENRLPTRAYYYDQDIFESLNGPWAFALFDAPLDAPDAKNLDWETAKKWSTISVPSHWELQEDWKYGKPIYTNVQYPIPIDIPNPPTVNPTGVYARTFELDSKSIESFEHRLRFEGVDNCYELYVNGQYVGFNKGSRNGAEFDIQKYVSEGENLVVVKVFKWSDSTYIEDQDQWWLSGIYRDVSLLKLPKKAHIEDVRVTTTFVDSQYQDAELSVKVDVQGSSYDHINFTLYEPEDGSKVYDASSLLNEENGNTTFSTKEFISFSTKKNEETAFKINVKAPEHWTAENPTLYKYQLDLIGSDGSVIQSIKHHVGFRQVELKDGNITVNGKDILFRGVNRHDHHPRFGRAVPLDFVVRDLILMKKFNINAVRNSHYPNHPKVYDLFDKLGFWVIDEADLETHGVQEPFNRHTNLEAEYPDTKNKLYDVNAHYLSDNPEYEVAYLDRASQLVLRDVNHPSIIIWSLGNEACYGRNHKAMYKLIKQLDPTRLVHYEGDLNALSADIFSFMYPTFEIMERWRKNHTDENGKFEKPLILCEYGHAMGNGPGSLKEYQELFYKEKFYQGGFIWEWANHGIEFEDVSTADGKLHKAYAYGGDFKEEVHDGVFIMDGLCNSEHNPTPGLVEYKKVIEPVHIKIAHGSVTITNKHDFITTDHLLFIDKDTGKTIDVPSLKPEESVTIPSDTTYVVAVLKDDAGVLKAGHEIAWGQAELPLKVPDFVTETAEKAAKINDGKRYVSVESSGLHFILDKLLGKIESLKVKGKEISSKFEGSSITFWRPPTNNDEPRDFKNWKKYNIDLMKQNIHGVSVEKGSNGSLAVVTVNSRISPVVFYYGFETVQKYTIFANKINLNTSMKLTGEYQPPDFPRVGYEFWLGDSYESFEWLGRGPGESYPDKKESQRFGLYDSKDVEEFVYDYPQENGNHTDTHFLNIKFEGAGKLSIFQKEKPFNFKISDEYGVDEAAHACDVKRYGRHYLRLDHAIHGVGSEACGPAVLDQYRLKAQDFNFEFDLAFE
Procedure: (§1) For the substrate solution 400 mM lactose was dissolved in Novo buffer (the composition of which is depicted in Table 4). The beta-galactosidase activity was determined in a thermo shaker in 1.5 mL reaction tubes at 8°C. The enzyme mix and the lactose solution were preincubated at 8 °C for 12 min. To start the enzymatic reaction 100 µL of the enzyme mix were added to 100 µL lactose solution. The reaction was carried out for 5 min at 8 °C. The reaction was stopped by adding 300 µL 1 M HClO4 to the enzyme-substrate-mix. The mix was kept on ice for 5 min before it was centrifuged at 13 000 rcf and 4 °C for 5 min. 160 µL of the supernatant were transferred to 75 µL 2 M KOH to neutralise the solution. The neutralisation step was checked using pH paper and the pH was adjusted if necessary. The solution was kept on ice for another 5 min before it was centrifuged at 13 000 rcf at 4 °C for 5 min. All assays were performed in triplicate. Table 4: Composition of Novo buffer
(§2) The influence of galactose was investigated with P. wynnii beta-galactosidase and the commercial beta-galactosidase Opti-Lactase (Optiferm GmbH, Oy-Mittelberg (D)). The determination of the enzyme activity in Novo buffer was conducted with a lactose concentration of 125 mM and 50 mM respectively. To this solutions 125 or 200 mM galactose were added. The determination of the enzyme activity was performed as described above.
(§3) First, 125 and 200 mM galactose respectively were added to 125 mM lactose (A). The enzyme activity of the technical enzyme preparation decreased with increasing galactose concentration. An activity of 51.8 % was determined. […] In another experiment 200 mM galactose was added to 50 mM lactose (B). Here, the same effect as in (A) could be observed.

[2] = target: T1, P. wynnii beta-galactosidase (SEQ ID NO: 1) (Paenibacillus wynnii, UniProt A0A098MAF9); experiment: as above; assay type: biochemical; settings: 8 °C
T1 sequence (A0A098MAF9 1-1042): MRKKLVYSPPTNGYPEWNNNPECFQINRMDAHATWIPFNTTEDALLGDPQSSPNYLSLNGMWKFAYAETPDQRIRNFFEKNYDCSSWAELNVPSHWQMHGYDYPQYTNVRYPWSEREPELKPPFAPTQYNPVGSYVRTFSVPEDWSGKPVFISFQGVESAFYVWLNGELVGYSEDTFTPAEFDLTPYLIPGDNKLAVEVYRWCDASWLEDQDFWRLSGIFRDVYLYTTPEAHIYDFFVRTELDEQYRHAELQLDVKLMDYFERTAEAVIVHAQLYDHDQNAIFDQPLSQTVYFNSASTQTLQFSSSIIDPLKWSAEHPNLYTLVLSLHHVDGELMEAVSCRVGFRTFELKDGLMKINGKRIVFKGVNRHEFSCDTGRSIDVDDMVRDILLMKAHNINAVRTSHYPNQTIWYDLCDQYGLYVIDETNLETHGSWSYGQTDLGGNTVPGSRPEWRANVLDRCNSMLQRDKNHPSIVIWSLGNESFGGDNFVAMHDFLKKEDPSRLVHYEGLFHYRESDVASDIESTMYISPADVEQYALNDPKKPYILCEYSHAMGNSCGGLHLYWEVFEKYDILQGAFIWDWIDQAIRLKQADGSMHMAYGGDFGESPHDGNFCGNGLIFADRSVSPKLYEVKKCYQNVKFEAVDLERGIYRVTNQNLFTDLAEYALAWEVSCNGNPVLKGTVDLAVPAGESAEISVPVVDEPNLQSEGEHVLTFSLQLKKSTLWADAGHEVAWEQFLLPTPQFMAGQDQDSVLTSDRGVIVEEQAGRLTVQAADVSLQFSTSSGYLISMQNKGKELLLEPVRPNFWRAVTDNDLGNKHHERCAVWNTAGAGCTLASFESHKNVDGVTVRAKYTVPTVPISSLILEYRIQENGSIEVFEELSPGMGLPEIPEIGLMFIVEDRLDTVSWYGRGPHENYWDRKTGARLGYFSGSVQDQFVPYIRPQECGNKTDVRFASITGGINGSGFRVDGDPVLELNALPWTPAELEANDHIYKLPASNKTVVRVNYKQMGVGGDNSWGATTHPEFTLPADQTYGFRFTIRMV
Procedure: as §1, §2, §3

[3] = tested on: P. barengoltzii beta-galactosidase; settings: 200 mM galactose, 45 °C, substrate oNPGal; cited from earlier work
[4] = tested on: Metagenome M1 beta-galactosidase (metagenome beta-galactosidase 3J33 as described in EP 2 530 148 A1); experiment: Influence of galactose on the enzyme activity, lactose assay; assay type: biochemical; settings: 8 °C; for Relative enzyme activity: Lactose-Assay
Procedure: as §1
The influence of galactose was also investigated with the metagenome M1 beta-galactosidase as described before. The determination of the enzyme activity in Novo buffer was conducted with a lactose concentration of 125 mM and 50 mM respectively. To this solutions 125 or 200 mM galactose were added.

[5] = tested on: Metagenome M1 beta-galactosidase (metagenome beta-galactosidase 3J33 as described in EP 2 530 148 A1); experiment: Influence of glucose and galactose on the enzyme activity, oNPGal assay; assay type: biochemical; settings: 200 mM galactose, 37 °C, substrate oNPGal
Procedure: (§4) The enzyme activity of beta-galactosidase was determined in 1.2 mL scale using oNPGal as substrate at 37 °C. For the assays a final concentration of 25 mM oNPGal dissolved in 100 mM potassium phosphate buffer (pH 6.75 containing 5 mM magnesium chloride) was used. Substrate and enzyme solution were preheated separately. The reaction was performed in a temperature-controlled cuvette using a spectrophotometer by adding enzyme solution to oNPGal solution. The increase of absorbance at 405 nm as result of o-nitrophenol release was measured for 2 min. The activity was calculated from the slope of the straight line.
(§5) Due to the experimental setup (analysis), it was not possible to measure the influence of glucose with the natural substrate lactose.

[6] = target: T1, P. wynnii beta-galactosidase (SEQ ID NO: 1); experiment: as above; assay type: biochemical; settings: pH 6.75, 200 mM Galactose, 37 °C, read-out: Relative enzyme activity
Procedure: as §4, §5

[7] = target: K. lactis beta-galactosidase (Kluyveromyces lactis, UniProt P00723); settings: 200 mM galactose, 37 °C, substrate oNPGal; cited from earlier work
Chain of K. lactis beta-galactosidase (P00723 whole entry): as the sequence (P00723 whole entry) above

[8] = tested on: beta-galactosidase PbGal2A from P. barengoltzii; settings: read-out: KM,lactose, cited from earlier work
[9] = tested on: Metagenome M1 beta-galactosidase (metagenome beta-galactosidase 3J33 as described in EP 2 530 148 A1); experiment: Turnover number with lactose as substrate; assay type: biochemical; settings: 8 °C
Procedure: To determine the turnover number, the specific activity of the enzymes on lactose at 8 °C was determined. The following formula was used to determine the turnover number: Kcat = (Vmax)/([E]) [s^−1] [formula] • Kcat = turnover number [s^-1] • Vmax = maximum activity [nkat/mg] • [E] = enzyme concentration […]
In Table 9, the calculated turnover numbers of the two beta-galactosidases are depicted. Table 9: Turnover numbers of the beta-galactosidases M1 and P. wynnii (8 °C, lactose as substrate)

[10] = tested on: Bacillus circulans beta-galactosidase; settings: phosphate buffer, 40 °C; read-out: KM,lactose; cited from earlier work
[11] = target: T1, P. wynnii beta-galactosidase (SEQ ID NO: 1); experiment: Determination of KM with lactose as substrate; assay type: biochemical; settings: Novo-buffer, 8 °C
Procedure: as §1, with “The solution was kept on ice for another 5 min before it was centrifuged at 13 000 rcf at 4 °C for 5 min. All assays were performed in triplicate. Table 4: Composition of Novo buffer” left out
The kinetic parameters were determined using the natural substrate lactose. […]
For the determination of the KM values of P. wynnii beta-galactosidase lactose concentrations ranged from 0.76 mM to 97.5 mM. […] The enzyme activities were measured under initial reaction velocity conditions of the enzyme. The reaction times for the initial velocity of the enzymes were determined in previous experiments. The kinetic parameter KM was analysed using the Enzyme Kinetics Module in SigmaPlot 12.5 (Systat Software, Inc., San Jose, USA). […]

[12] = tested on: Metagenome M1 beta-galactosidase (metagenome beta-galactosidase 3J33 as described in EP 2 530 148 A1); settings: 8 °C, read-out: KM,lactose, cited from earlier work

`OC[C@H]1OC(O)[C@H](O)[C@@H](O)[C@H]1O` (stereo partly drawn) [galactose, D-galactose] gave an activity at 200000 µM [1] of 32.5%, an activity at 200000 µM ([2]; 200 mM galactose, substrate Lactose) of 100% and a remaining activity at 200000 µM ([2]; 5 min, 50 mM lactose + 200 mM galactose, Lactose-Assay, read-out: Relative enzyme activity) of 110%. The remaining activity at 125000 µM ([2]; 5 min, 125 mM lactose + 125 mM galactose, Lactose-Assay, read-out: Relative enzyme activity) was 108%, the remaining activity at 200000 µM ([2]; 5 min, 125 mM lactose + 200 mM galactose, Lactose-Assay, read-out: Relative enzyme activity) was 115% and the inhibition by galactose ([2]; galactose up to 200 mM, Novo buffer, lactose as substrate) was “No inhibition; also recorded: did not have an inhibitory effect”. The “Influence of galactose (200 mM)” value [3] was 43.27 % EA, the Relative enzyme activity ([4]; 50 mM lactose + 200 mM galactose) was 100% and the Relative enzyme activity ([4]; 125 mM lactose + 125 mM galactose) was 97%. The Relative enzyme activity ([4]; 125 mM lactose + 200 mM galactose) was 101%, the inhibition by galactose ([4]; 125 or 200 mM galactose, 125 or 50 mM lactose, Novo buffer) was “did also not have an inhibitory effect” and the “Influence of galactose (200 mM)” value [5] was 100 % EA. For the same compound, the remaining activity at 200000 µM [6] was 118% and the “Influence of galactose (200 mM)” value [7] was 75 % EA.
For `OC[C@H]1O[C@@H](O[C@H]2[C@H](O)[C@@H](O)C(O)O[C@@H]2CO)[C@H](O)[C@@H](O)[C@H]1O` (stereo partly drawn) [lactose], the Km ([8]; MOPS buffer, 45 °C) is given as 43.3 mM, the Km [8] is given as 43.3 ± 1.84 mM and the “Turnover number (Kcat)” value [9] is given as 2.466 s⁻¹. For the same compound, the Km [10] was 16 mM, the Km [11] was 0.34 to 0.52 mM and the Km ([12]; Novo buffer) was 1.44 mM. The Km ([12]; milk + Novo buffer) was 2.1 mM.
